From the kinase profiling compilation of Christmann-Franck et al. (2016)

Legend:
Settings in all cases: compound 10.0 µM
MLTK (human) = MLTK (human) (UniProt Q9NYL2)
NUAK1 (human) = NUAK1 (human) (UniProt O60285)
TAOK2 (human) = TAOK2 (human) (UniProt Q9UL54)
RPS6KA6 KD1 KD2 (human) = RPS6KA6 KD1 KD2 (human) (UniProt Q9UK32)
CHEK2 (human) = CHEK2 (human) (UniProt O96017)
JAK1 JH1 JH2 (human) = JAK1 JH1 JH2 (human) (UniProt P23458)
DCLK2 (human) = DCLK2 (human) (UniProt Q8N568)
PLK3 (human) = PLK3 (human) (UniProt Q9H4B4)
TTK (human) = TTK (human) (UniProt P33981)
SRMS (human) = SRMS (human) (UniProt Q9H3Y6)
Sequence of SRMS (human) (Q9H3Y6 whole entry, looked up): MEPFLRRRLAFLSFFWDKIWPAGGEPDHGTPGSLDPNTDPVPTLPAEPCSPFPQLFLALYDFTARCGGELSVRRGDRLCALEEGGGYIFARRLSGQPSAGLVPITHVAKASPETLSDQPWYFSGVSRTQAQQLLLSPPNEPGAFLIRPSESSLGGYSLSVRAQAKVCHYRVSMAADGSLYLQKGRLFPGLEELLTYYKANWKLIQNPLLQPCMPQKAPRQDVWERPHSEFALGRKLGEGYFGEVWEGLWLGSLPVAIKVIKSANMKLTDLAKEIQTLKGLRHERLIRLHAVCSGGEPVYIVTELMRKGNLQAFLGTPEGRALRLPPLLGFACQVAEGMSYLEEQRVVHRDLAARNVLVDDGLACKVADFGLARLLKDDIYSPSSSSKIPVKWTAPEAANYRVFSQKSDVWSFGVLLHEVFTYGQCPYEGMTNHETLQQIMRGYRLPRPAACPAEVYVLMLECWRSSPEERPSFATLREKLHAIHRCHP

FGFR3 (human) = FGFR3 (human) (UniProt P22607)
Sequence of FGFR3 (human) (P22607 whole entry, looked up): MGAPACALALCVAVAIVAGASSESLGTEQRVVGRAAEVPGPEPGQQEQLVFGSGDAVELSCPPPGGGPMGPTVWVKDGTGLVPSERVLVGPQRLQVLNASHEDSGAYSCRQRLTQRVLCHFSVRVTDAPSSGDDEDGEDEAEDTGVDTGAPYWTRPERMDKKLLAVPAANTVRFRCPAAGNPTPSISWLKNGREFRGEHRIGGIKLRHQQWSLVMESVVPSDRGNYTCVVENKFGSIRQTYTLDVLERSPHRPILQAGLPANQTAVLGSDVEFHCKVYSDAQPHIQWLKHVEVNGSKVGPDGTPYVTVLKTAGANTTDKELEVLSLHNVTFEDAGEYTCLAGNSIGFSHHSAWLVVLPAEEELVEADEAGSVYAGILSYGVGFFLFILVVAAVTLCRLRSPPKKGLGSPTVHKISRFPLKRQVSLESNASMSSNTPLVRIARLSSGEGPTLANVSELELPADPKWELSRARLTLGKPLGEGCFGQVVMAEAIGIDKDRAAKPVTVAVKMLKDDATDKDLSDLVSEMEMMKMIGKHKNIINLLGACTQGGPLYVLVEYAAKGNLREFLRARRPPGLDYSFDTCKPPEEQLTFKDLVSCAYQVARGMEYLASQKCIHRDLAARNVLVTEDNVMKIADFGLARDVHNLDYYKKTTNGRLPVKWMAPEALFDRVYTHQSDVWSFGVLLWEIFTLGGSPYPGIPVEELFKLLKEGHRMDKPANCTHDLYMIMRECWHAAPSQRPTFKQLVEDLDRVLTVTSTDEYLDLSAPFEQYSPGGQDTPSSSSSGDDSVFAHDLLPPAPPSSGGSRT

DYRK3 (human) = DYRK3 (human) (UniProt O43781)
CAMKK1 (human) = CAMKK1 (human) (UniProt Q8N5S9)
Sequence of CAMKK1 (human) (Q8N5S9 whole entry, looked up): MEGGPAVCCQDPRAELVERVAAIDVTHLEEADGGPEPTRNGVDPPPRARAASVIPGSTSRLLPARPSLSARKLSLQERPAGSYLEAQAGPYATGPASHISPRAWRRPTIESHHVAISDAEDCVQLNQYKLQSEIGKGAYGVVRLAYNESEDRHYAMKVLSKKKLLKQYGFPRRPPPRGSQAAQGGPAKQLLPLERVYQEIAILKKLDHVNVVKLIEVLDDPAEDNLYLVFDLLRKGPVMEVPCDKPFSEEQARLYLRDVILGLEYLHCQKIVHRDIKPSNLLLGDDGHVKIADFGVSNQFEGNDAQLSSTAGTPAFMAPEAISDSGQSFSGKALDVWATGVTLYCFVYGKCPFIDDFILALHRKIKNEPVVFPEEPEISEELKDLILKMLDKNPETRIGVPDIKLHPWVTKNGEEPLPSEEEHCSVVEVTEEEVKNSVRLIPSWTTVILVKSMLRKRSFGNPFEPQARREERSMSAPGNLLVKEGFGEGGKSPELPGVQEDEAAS

CSF1R (human) = CSF1R (human) (UniProt P07333)
Sequence of CSF1R (human) (P07333 whole entry, looked up): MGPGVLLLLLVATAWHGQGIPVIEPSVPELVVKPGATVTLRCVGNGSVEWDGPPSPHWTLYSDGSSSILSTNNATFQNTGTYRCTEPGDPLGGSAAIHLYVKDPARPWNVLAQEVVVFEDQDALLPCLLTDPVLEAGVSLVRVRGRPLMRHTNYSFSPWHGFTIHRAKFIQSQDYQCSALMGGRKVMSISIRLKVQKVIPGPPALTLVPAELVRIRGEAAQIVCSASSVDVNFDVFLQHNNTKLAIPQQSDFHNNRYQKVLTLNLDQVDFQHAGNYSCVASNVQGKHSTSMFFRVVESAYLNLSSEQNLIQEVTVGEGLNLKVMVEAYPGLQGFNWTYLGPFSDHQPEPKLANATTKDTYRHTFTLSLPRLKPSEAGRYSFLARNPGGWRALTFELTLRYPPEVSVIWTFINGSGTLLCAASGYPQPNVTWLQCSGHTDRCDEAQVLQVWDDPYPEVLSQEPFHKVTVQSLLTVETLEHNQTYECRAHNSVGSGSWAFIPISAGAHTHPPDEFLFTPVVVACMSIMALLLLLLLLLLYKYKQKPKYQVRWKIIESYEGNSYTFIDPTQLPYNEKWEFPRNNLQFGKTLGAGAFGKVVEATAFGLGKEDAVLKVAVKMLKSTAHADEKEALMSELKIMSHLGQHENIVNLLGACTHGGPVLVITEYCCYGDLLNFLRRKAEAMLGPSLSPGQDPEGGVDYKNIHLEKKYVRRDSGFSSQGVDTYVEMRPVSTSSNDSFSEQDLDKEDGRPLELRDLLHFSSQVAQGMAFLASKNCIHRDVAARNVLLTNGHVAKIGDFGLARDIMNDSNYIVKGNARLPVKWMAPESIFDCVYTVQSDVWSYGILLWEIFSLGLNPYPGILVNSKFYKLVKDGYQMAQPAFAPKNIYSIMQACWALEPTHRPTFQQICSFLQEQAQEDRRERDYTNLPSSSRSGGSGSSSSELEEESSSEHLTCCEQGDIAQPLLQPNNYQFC

VRK1 (human) = VRK1 (human) (UniProt Q99986)
MYLK (human) = MYLK (human) (UniProt Q15746)
[1] = system: LYN (human), P07948 [23-43 del]
PTK6 (human) = PTK6 (human) (UniProt Q13882)
CDK3 CCNE1 (human) = CDK3 CCNE1 (human) (UniProt P24864+Q00526)
MAP2K1 (human) = MAP2K1 (human) (UniProt Q02750)
CSNK1A1 (human) = CSNK1A1 (human) (UniProt P48729)
Sequence of CSNK1A1 (human) (P48729 whole entry, looked up): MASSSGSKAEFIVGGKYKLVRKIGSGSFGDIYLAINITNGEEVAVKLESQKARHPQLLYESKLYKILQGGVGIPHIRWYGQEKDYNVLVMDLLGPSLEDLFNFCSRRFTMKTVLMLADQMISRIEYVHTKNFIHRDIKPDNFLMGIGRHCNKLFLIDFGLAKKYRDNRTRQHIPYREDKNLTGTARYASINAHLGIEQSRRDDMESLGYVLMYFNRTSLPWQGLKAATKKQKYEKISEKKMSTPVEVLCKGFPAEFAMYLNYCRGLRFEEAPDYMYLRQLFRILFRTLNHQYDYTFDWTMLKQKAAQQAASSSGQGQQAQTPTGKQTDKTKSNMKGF

BTK (human) = BTK (human) (UniProt Q06187)
CSNK2A2 (human) = CSNK2A2 (human) (UniProt P19784)
TNK2 (human) = TNK2 (human) (UniProt Q07912)
Sequence of TNK2 (human) (Q07912 whole entry, looked up): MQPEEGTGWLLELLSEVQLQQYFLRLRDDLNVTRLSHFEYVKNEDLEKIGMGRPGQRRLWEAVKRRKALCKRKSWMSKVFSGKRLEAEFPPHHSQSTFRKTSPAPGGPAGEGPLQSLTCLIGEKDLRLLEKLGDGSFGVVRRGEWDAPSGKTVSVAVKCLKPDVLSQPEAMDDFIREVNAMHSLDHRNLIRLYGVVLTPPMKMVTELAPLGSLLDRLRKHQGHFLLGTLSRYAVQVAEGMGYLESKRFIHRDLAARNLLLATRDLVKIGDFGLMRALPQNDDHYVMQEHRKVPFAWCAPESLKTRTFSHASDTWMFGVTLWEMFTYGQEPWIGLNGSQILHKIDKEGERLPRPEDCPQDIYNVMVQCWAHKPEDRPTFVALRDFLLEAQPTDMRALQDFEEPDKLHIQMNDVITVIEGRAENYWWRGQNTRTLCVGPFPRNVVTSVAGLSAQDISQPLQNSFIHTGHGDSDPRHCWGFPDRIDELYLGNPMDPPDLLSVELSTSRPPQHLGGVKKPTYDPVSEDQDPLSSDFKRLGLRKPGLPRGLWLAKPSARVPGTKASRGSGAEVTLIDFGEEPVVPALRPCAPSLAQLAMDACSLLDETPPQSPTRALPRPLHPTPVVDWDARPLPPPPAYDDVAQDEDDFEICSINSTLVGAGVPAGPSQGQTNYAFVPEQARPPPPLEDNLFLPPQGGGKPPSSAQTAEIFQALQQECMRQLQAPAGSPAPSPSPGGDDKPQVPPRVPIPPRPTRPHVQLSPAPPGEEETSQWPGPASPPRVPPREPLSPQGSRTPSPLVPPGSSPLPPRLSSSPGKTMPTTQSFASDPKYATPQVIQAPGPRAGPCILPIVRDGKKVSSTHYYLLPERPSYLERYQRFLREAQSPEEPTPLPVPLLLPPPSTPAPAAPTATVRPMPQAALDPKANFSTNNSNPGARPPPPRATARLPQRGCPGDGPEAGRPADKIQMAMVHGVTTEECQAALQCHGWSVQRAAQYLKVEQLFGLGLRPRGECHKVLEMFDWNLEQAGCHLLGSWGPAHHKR

ULK1 (human) = ULK1 (human) (UniProt O75385)
CAMK2D (human) = CAMK2D (human) (UniProt Q13557)
HIPK1 (human) = HIPK1 (human) (UniProt Q86Z02)
MATK (human) = MATK (human) (UniProt P42679)
DSTYK (human) = DSTYK (human) (UniProt Q6XUX3)
DYRK1A (human) = DYRK1A (human) (UniProt Q13627)
RPS6KB1 (human) = RPS6KB1 (human) (UniProt P23443)
NEK2 (human) = NEK2 (human) (UniProt P51955)
MYO3B (human) = MYO3B (human) (UniProt Q8WXR4)
HCK (human) = HCK (human) (UniProt P08631)
WNK3 (human) = WNK3 (human) (UniProt Q9BYP7)
FRK (human) = FRK (human) (UniProt P42685)
EPHB3 (human) = EPHB3 (human) (UniProt P54753)
CDK7 CCNH MNAT1 (human) = CDK7 CCNH MNAT1 (human) (UniProt P50613+P51948+P51946)
AXL (human) = AXL (human) (UniProt P30530)
Sequence of AXL (human) (P30530 whole entry, looked up): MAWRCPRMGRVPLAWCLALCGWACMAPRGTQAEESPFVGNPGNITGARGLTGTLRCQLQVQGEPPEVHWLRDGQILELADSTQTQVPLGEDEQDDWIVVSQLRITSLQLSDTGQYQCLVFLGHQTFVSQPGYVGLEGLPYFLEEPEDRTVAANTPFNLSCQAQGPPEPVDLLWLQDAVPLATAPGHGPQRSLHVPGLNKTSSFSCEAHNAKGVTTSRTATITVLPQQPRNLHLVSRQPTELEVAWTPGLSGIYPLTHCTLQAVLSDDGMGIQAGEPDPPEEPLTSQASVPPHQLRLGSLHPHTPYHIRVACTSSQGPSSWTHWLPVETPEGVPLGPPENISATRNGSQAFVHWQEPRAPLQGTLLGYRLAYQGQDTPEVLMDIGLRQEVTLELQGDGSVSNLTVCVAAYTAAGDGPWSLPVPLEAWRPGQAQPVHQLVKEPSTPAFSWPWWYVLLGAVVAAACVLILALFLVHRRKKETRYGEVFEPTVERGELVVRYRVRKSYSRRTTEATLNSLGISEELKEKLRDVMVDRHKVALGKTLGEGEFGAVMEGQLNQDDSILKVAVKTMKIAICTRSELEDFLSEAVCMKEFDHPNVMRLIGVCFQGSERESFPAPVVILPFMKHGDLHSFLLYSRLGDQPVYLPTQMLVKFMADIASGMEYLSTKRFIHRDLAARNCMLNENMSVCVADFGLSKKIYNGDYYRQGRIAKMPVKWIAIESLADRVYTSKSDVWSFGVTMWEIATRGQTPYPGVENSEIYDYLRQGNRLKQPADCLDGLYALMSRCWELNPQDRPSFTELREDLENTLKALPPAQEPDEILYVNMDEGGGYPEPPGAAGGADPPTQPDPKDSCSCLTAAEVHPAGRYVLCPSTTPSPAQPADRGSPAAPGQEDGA

TGFBR2 (human) = TGFBR2 (human) (UniProt P37173)
KIT (human) = KIT (human) (UniProt P10721)
JAK2 JH1 JH2 (human) = JAK2 JH1 JH2 (human) (UniProt O60674)
PRKCE (human) = PRKCE (human) (UniProt Q02156)
MAP3K3 (human) = MAP3K3 (human) (UniProt Q99759)

A residual activity (MLTK (human)) of 96%, a residual activity (NUAK1 (human)) of 102% and a residual activity (TAOK2 (human)) of 103% were found for `CC[C@H](C)n1cc(C)c2c(C(=O)NCc3c(C)cc(C)[nH]c3=O)cc(-c3ccc(N4CCNCC4)nc3)cc21` in this work. For the same compound, the residual activity (RPS6KA6 KD1 KD2 (human)) was 92%, the residual activity (CHEK2 (human)) was 71% and the residual activity (JAK1 JH1 JH2 (human)) was 97.5%. For the same compound, the residual activity (DCLK2 (human)) was 104%, the residual activity (PLK3 (human)) was 106% and the residual activity (TTK (human)) was 102%. For the same compound, the residual activity (SRMS (human)) was 93.5%, the residual activity (FGFR3 (human)) was 80.5% and the residual activity (DYRK3 (human)) was 96.5%. It also gave a residual activity (CAMKK1 (human)) of 96%, a residual activity (CSF1R (human)) of 95% and a residual activity (VRK1 (human)) of 101%. For the same compound, the residual activity (MYLK (human)) was 96%, the residual activity [1] was 92% and the residual activity (PTK6 (human)) was 93%. It also gave a residual activity (CDK3 CCNE1 (human)) of 105%, a residual activity (MAP2K1 (human)) of 102% and a residual activity (CSNK1A1 (human)) of 97%. The residual activity (BTK (human)) was 103%, the residual activity (CSNK2A2 (human)) was 76.5% and the residual activity (TNK2 (human)) was 93.5%. It also gave a residual activity (ULK1 (human)) of 98%, a residual activity (CAMK2D (human)) of 100% and a residual activity (HIPK1 (human)) of 99%. The residual activity (MATK (human)) was 95.5%, the residual activity (DSTYK (human)) was 97.5% and the residual activity (DYRK1A (human)) was 95%. For the same compound, the residual activity (RPS6KB1 (human)) was 97%, the residual activity (NEK2 (human)) was 103% and the residual activity (MYO3B (human)) was 92%. The residual activity (HCK (human)) was 101%, the residual activity (WNK3 (human)) was 95% and the residual activity (FRK (human)) was 97%. It also gave a residual activity (EPHB3 (human)) of 92.5%, a residual activity (CDK7 CCNH MNAT1 (human)) of 102% and a residual activity (AXL (human)) of 103%. The residual activity (TGFBR2 (human)) was 100%, the residual activity (KIT (human)) was 99% and the residual activity (JAK2 JH1 JH2 (human)) was 91.5%. It also gave a residual activity (PRKCE (human)) of 99.5% and a residual activity (MAP3K3 (human)) of 107%.
